Measured values as given in patent publication US11053213B2, “Pharmaceutical compounds” (ALMAC DISCOVERY LIMITED, priority 2016, dated 2021).

target: USP19 (Homo sapiens (Human), UniProt O94966); assay: USP19 activity assay (fluorescence polarisation, Ubiquitin-Lys-TAMRA substrate); assay type: biochemical; conditions: full-length USP19 2.5 nM, 30 min pre-incubation, Ub substrate 500 nM; average of at least two duplicate experiments
Sequence (O94966 whole entry): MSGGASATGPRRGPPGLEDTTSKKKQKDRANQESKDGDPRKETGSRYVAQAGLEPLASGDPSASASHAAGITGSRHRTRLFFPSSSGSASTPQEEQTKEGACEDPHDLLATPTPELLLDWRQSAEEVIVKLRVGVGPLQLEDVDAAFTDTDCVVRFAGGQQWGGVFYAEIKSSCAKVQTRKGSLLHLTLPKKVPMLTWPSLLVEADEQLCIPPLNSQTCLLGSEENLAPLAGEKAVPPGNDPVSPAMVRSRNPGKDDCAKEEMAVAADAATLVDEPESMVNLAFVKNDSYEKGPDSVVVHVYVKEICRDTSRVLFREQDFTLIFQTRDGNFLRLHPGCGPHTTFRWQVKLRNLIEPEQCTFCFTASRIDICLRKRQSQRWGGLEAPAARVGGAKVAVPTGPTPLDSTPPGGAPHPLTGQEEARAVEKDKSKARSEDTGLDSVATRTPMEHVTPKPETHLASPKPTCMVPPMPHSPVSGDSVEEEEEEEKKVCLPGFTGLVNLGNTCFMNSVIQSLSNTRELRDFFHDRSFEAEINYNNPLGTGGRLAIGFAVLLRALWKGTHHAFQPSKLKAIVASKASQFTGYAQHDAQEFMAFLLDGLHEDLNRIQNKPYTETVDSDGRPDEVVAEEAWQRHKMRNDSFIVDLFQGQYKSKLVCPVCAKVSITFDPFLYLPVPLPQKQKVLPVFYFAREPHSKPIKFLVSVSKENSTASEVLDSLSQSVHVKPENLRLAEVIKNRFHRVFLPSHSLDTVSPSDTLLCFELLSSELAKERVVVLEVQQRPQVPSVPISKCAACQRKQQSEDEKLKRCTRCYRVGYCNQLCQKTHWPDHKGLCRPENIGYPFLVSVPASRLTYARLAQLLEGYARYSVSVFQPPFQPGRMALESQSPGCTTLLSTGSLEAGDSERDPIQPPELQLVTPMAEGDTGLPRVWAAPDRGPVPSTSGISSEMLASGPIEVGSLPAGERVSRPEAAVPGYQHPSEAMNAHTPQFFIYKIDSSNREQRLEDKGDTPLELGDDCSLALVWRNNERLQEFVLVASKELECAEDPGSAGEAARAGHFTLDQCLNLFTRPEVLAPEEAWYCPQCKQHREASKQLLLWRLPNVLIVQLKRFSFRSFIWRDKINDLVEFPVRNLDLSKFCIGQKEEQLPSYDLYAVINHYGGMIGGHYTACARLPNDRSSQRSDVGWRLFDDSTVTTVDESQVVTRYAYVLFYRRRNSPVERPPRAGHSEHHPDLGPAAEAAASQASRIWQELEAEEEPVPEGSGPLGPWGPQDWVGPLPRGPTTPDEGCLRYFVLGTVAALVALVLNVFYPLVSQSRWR

| Compound | IC50 |
| --- | --- |
| C[C@H](CC1CCCCC1)C(=O)N1CCC(O)(Cn2cc(C(=O)N(C)C)ccc2=O)C2(CCCC2)C1 (stereo partly drawn) [Example 127, 1-((7-((R)-3-Cyclohexyl-2-methylpropanoyl)-10-hydroxy-7-azaspiro[4.5]decan-10-yl)methyl)-N,N-dimethyl-6-oxo-1,6-dihydropyridine-3-carboxamide] | 0.5 to 5 µM |
| C[C@H](CC1CCC1)C(=O)N1CCC(O)(Cn2cc(C(=O)N(C)C)c(-c3ccccc3)cc2=O)C(C)(C)C1 (stereo partly drawn) [Example 128, 1-((1-((R)-3-Cyclobutyl-2-methylpropanoyl)-4-hydroxy-3,3-dimethylpiperidin-4-yl)methyl)-N,N-dimethyl-6-oxo-4-phenyl-1,6-dihydropyridine-3-carboxamide] | 0.5 to 5 µM |
| C[C@H](CC1CC1)C(=O)N1CCC(O)(Cn2cc(C(=O)N(C)C)c(-c3ccccc3)cc2=O)C(C)(C)C1 (stereo partly drawn) [Example 129, 1-((1-((R)-3-Cyclopropyl-2-methylpropanoyl)-4-hydroxy-3,3-dimethylpiperidin-4-yl)methyl)-N,N-dimethyl-6-oxo-4-phenyl-1,6-dihydropyridine-3-carboxamide] | 5 to 50 µM |
| C[C@H](CC1CCCCC1)C(=O)N1CCC(O)(Cn2cnc(-c3cncnc3)cc2=O)C(C)(C)C1 (stereo partly drawn) [Example 130, 1-((1-((R)-3-Cyclohexyl-2-methylpropanoyl)-4-hydroxy-3,3-dimethylpiperidin-4-yl)methyl)-[4,5′-bipyrimidin]-6(1H)-one] | 0.5 to 5 µM |
| C[C@H](CC1CCCCC1)C(=O)N1CCC(O)(Cn2cnc(-c3ccnn3C)cc2=O)C(C)(C)C1 (stereo partly drawn) [Example 131, 3-((1-((R)-3-Cyclohexyl-2-methylpropanoyl)-4-hydroxy-3,3-dimethylpiperidin-4-yl)methyl)-6-(1-methyl-1H-pyrazol-5-yl)pyrimidin-4(3H)-one] | 0.5 to 5 µM |
| C[C@H](CC1CCCCC1)C(=O)N1CCC(O)(Cn2cnc(-c3cn[nH]c3)cc2=O)C(C)(C)C1 (stereo partly drawn) [Example 132, 3-((1-((R)-3-Cyclohexyl-2-methylpropanoyl)-4-hydroxy-3,3-dimethylpiperidin-4-yl)methyl)-6-(1H-pyrazol-4-yl)pyrimidin-4(3H)-one] | 5 to 50 µM |
| C[C@H](CC1CCCCC1)C(=O)N1CCC(O)(Cn2cnc(-c3ccn[nH]3)cc2=O)C(C)(C)C1 (stereo partly drawn) [Example 133, 3-((1-((R)-3-Cyclohexyl-2-methylpropanoyl)-4-hydroxy-3,3-dimethylpiperidin-4-yl)methyl)-6-(1H-pyrazol-5-yl)pyrimidin-4(3H)-one] | 0.5 to 5 µM |
| C[C@H](CC1CCCCC1)C(=O)N1CCC(O)(Cn2cnccc2=O)C2(CCCC2)C1 (stereo partly drawn) [Example 134, 3-((7-((R)-3-Cyclohexyl-2-methylpropanoyl)-10-hydroxy-7-azaspiro[4.5]decan-10-yl)methyl)pyrimidin-4(3H)-one] | 5 to 50 µM |
| C[C@H](CC1CCCCC1)C(=O)N1CCC(O)(Cn2cnc(-c3ccsc3)cc2=O)C(C)(C)C1 (stereo partly drawn) [Example 135, 3-((1-((R)-3-Cyclohexyl-2-methylpropanoyl)-4-hydroxy-3,3-dimethylpiperidin-4-yl)methyl)-6-(thiophen-3-yl)pyrimidin-4(3H)-one] | < 0.5 µM |
| C[C@H](CC1CCCCC1)C(=O)N1CCC(O)(Cn2cc(-c3ncco3)c(-c3ccccc3)cc2=O)C(C)(C)C1 (stereo partly drawn) [Example 136, 1-((1-((R)-3-Cyclohexyl-2-methylpropanoyl)-4-hydroxy-3,3-dimethylpiperidin-4-yl)methyl)-5-(oxazol-2-yl)-4-phenylpyridin-2(1H)-one] | 0.5 to 5 µM |
| C[C@H](CC1CCCCC1)C(=O)N1CCC(O)(Cn2cnc(-c3ccccc3CO)cc2=O)C(C)(C)C1 (stereo partly drawn) [Example 137, 3-((1-((R)-3-Cyclohexyl-2-methylpropanoyl)-4-hydroxy-3,3-dimethylpiperidin-4-yl)methyl)-6-(2-(hydroxymethyl)phenyl)pyrimidin-4(3H)-one] | 0.5 to 5 µM |
| C[C@H](CC1CCCCC1)C(=O)N1CCC(O)(Cn2cnc(-c3cccc(CO)c3)cc2=O)C(C)(C)C1 (stereo partly drawn) [Example 138, 3-((1-((R)-3-Cyclohexyl-2-methylpropanoyl)-4-hydroxy-3,3-dimethylpiperidin-4-yl)methyl)-6-(3-(hydroxymethyl)phenyl)pyrimidin-4(3H)-one] | < 0.5 µM |
| C[C@H](CC1CCCCC1)C(=O)N1CCC(O)(Cn2cnc(-c3ccc(CO)cc3)cc2=O)C(C)(C)C1 (stereo partly drawn) [Example 139, 3-((1-((R)-3-Cyclohexyl-2-methylpropanoyl)-4-hydroxy-3,3-dimethylpiperidin-4-yl)methyl)-6-(4-(hydroxymethyl)phenyl)pyrimidin-4(3H)-one] | < 0.5 µM |
| C[C@H](CC1CCCCC1)C(=O)N1CCC(O)(Cn2cnc(-c3ccc(CN)cc3)cc2=O)C(C)(C)C1 (stereo partly drawn) [Example 140, 6-(4-(Aminomethyl)phenyl)-3-((1-((R)-3-cyclohexyl-2-methylpropanoyl)-4-hydroxy-3,3-dimethylpiperidin-4-yl)methyl)pyrimidin-4(3H)-one] | 0.5 to 5 µM |
| C[C@H](CC1CCCCC1)C(=O)N1CCC(O)(Cn2cnc(-c3ccccc3CN)cc2=O)C(C)(C)C1 (stereo partly drawn) [Example 141, 6-(2-(Aminomethyl)phenyl)-3-((1-((R)-3-cyclohexyl-2-methylpropanoyl)-4-hydroxy-3,3-dimethylpiperidin-4-yl)methyl)pyrimidin-4(3H)-one] | < 0.5 µM |

The remaining lines, values ahead:

| IC50 | Compound |
| --- | --- |
| 50 to 250 µM | CC(CC(C)(C)C)C(=O)N1CCC(O)(Cn2cnc(-c3ccccc3F)cc2=O)C(C)(C)C1 (stereo not shown) [Example 142, 6-(2-Fluorophenyl)-3-((4-hydroxy-3,3-dimethyl-1-(2,4,4-trimethylpentanoyl)piperidin-4-yl)methyl)pyrimidin-4(3H)-one] |
| 5 to 50 µM | CC(CC(F)(F)F)C(=O)N1CCC(O)(Cn2cnc(-c3ccccc3F)cc2=O)C(C)(C)C1 (stereo not shown) [Example 143, 6-(2-Fluorophenyl)-3-((4-hydroxy-3,3-dimethyl-1-(4,4,4-trifluoro-2-methylbutanoyl)piperidin-4-yl)methyl)pyrimidin-4(3H)-one] |
| < 0.5 µM | C[C@H](CC1CCCCC1)C(=O)N1CCC(O)(Cn2cc(C(=O)N(C)C)c(Cl)cc2=O)C2(CCCC2)C1 (stereo partly drawn) [Example 144, 4-chloro-1-((7-((R)-3-cyclohexyl-2-methylpropanoyl)-10-hydroxy-7-azaspiro[4.5]decan-10-yl)methyl)-N,N-dimethyl-6-oxo-1,6-dihydropyridine-3-carboxamide] |
| < 0.5 µM | C[C@H](CC1CCCCC1)C(=O)N1CCC(O)(Cn2cc(C(=O)N(C)C)c(N(C)C)cc2=O)C2(CCCC2)C1 (stereo partly drawn) [Example 145, 1-((7-((R)-3-Cyclohexyl-2-methylpropanoyl)-10-hydroxy-7-azaspiro[4.5]decan-10-yl)methyl)-4-(dimethylamino)-N,N-dimethyl-6-oxo-1,6-dihydropyridine-3-carboxamide] |
| 0.5 to 5 µM | CN(C)C(=O)c1cn(CC2(O)CCN(C(=O)[C@H](COCc3ccccc3)CC3CCCCC3)CC2(C)C)c(=O)cc1-c1ccccc1 (stereo partly drawn) [Example 146, 1-((1-((S)-3-(Benzyloxy)-2-(cyclohexylmethyl)propanoyl)-4-hydroxy-3,3-dimethylpiperidin-4-yl)methyl)-N,N-dimethyl-6-oxo-4-phenyl-1,6-dihydropyridine-3-carboxamide] |
| 50 to 250 µM | CC(C)C(=O)N1CCC(O)(Cn2cc(C(=O)N(C)C)c(-c3ccccc3)cc2=O)C2(CCCC2)C1 (stereo not shown) [Example 147, 1-((10-Hydroxy-7-isobutyryl-7-azaspiro[4.5]decan-10-yl)methyl)-N,N-dimethyl-6-oxo-4-phenyl-1,6-dihydropyridine-3-carboxamide] |
| 5 to 50 µM | CC[C@@H](C)C(=O)N1CCC(O)(Cn2cc(C(=O)N(C)C)c(-c3ccccc3)cc2=O)C2(CCCC2)C1 (stereo partly drawn) [Example 148, 1-((10-Hydroxy-7-((R)-2-methylbutanoyl)-7-azaspiro[4.5]decan-10-yl)methyl)-N,N-dimethyl-6-oxo-4-phenyl-1,6-dihydropyridine-3-carboxamide] |
| < 0.5 µM | C[C@H](CC1CC1)C(=O)N1CCC(O)(Cn2cc(C(=O)N(C)C)c(-c3ccccc3)cc2=O)C2(CCCC2)C1 (stereo partly drawn) [Example 149, 1-((7-((R)-3-Cyclopropyl-2-methylpropanoyl)-10-hydroxy-7-azaspiro[4.5]decan-10-yl)methyl)-N,N-dimethyl-6-oxo-4-phenyl-1,6-dihydropyridine-3-carboxamide] |
| 50 to 250 µM | CC(Cn1cccn1)C(=O)N1CCC(O)(Cn2cnc(-c3ccccc3F)cc2=O)C(C)(C)C1 (stereo not shown) [Example 150, 6-(2-Fluorophenyl)-3-((4-hydroxy-3,3-dimethyl-1-(2-methyl-3-(1H-pyrazol-1-yl)propanoyl)piperidin-4-yl)methyl)pyrimidin-4(3H)-one] |
| 5 to 50 µM | C[C@H](CC1CCCCC1)C(=O)N1CCC(O)(Cn2cc(C(=O)N(C)C)c(-c3ccccc3CO)cc2=O)C2(CCCC2)C1 (stereo partly drawn) [Example 151, 1-((7-((R)-3-Cyclohexyl-2-methylpropanoyl)-10-hydroxy-7-azaspiro[4.5]decan-10-yl)methyl)-4-(2-(hydroxymethyl)phenyl)-N,N-dimethyl-6-oxo-1,6-dihydropyridine-3-carboxamide] |
| < 0.5 µM | CN(C)C(=O)c1cn(C[C@]2(O)CCN(C(=O)[C@H](CO)CC3CCCCC3)CC2(C)C)c(=O)cc1-c1ccccc1 [Example 152, 1-(((S)-1-((S)-3-Cyclohexyl-2-(hydroxymethyl)propanoyl)-4-hydroxy-3,3-dimethylpiperidin-4-yl)methyl)-N,N-dimethyl-6-oxo-4-phenyl-1,6-dihydropyridine-3-carboxamide] |
| 5 to 50 µM | C[C@H](CC1CCCCC1)C(=O)N1CCC(O)(Cn2cc(-c3ccccn3)c(-c3ccccc3F)cc2=O)C(C)(C)C1 (stereo partly drawn) [Example 154, 1′-((1-((R)-3-Cyclohexyl-2-methylpropanoyl)-4-hydroxy-3,3-dimethylpiperidin-4-yl)methyl)-4′-(2-fluorophenyl)-[2,3′-bipyridin]-6′(1′H)-one] |
| < 0.5 µM | C[C@H](CC1CCCCC1)C(=O)N1CCC(O)(Cn2cc(C(=O)N(C)C)c(-c3ccsc3)cc2=O)C2(CCCC2)C1 (stereo partly drawn) [Example 155, 1-((7-((R)-3-Cyclohexyl-2-methylpropanoyl)-10-hydroxy-7-azaspiro[4.5]decan-10-yl)methyl)-N,N-dimethyl-6-oxo-4-(thiophen-3-yl)-1,6-dihydropyridine-3-carboxamide] |
